The subject of this assay is Wnt. The assay is described as follows: Wnt reporter screening assay: SP5 promoter (TCF/LEF) firefly luciferase in SW480 cells. It counts as cell-based. The note with it: SW480 colon cancer cells with SP5 promoter luciferase reporter, 24 hours after compound addition, normalized to DMSO, read-out: Wnt inhibition, IC50. An excerpt: Another screening assay for Wnt activity is described as follows. Reporter cell lines can be generated by stably transducing cells of cancer cell lines (e.g., colon cancer) with a lentiviral construct that include a wnt-responsive promoter driving expression of the firefly luciferase gene.
Lentiviral constructs can be made in which the SP5 promoter, a promoter having eight TCF/LEF binding sites derived from the SP5 promoter, is linked upstream of the firefly luciferase gene. The lentiviral constructs can also include a hygromycin resistance gene as a selectable marker. The SP5 promoter construct can be used to transduce SW480 cells, a colon cancer cell line having a mutated APC gene that generates a truncated APC protein, leading to de-regulated accumulation of β-catenin.
Cultured SW480 cells bearing a reporter construct can be distributed at approximately 10,000 cells per well into 384 well multiwell plates. Compounds from a small molecule compound library can then be added to the wells in half-log dilutions using a three micromolar top concentration. A series of control wells for each cell type receive only buffer and compound solvent. Twenty-four hours after the addition of compound, reporter activity for luciferases can be assayed, for example, by addition of the BrightGlo luminescence reagent (Promega) and the Victor3 plate reader (Perkin Elmer). Readings can be normalized to DMSO only treated cells, and normalized activities can then be used in the IC50 calculations.

Results on 4 compounds are retold here after patent US20110034441A1, “INDAZOLES AS WNT/B-CATENIN SIGNALING PATHWAY INHIBITORS AND THERAPEUTIC USES THEREOF” (EPITHERIX, LLC, priority 2009, published 2011).

Where two headings read alike, the source gives them in different places.

For the compound “N-ethyl-4-methyl-5-(3-(4-(4-methyl-1H-imidazol-1-yl)-1H-benzo[d]imidazol-2-yl)-1H-indazol-5-yl)nicotinamide [Compound 43]”, the IC50 – broadly, the concentration at which inhibition is half-maximal – fell in the range of 0.077 to 0.096 µM.
For `CCNCc1cncc(-c2ccc3[nH]nc(-c4nc5ccc(COC)cc5[nH]4)c3c2)c1C` [Compound 33], for the setting “Homo sapiens”, the IC50 stood at 0.68 µM.
For `Cc1ccc(-n2nc(C(N)=O)c3ccc4[nH]ncc4c32)cc1` [Compound 123], the half-maximal inhibitory concentration (IC50) (Homo sapiens) came to 1.22 µM.
`O=C(NC1CCN(Cc2ccccc2)CC1)c1ccc2[nH]nc(-c3nc4ccccc4[nH]3)c2c1` [Compound 19, 3-(1H-benzo[d]imidazol-2-yl)-N-(1-benzylpiperidin-4-yl)-1H-indazole-5-carboxamide]: under “Homo sapiens”, the IC50 lay within 0.33 to 0.4 µM.
